The record followed here is patent US20210301315A1, “METHODS FOR TREATING POLYMICROBIAL INFECTIONS” (priority 2017, published 2021).

Assay [1] deals with bacterial organisms present in patient urine sample. The assay can be described thus: Antibiotic Resistance (ABR) assay utilizing agar-containing medium. Conditions: for overall sensitivity of the bacteria in the sample to the antibiotic (in words): Example 2 sample. Type of assay: cell-based. As for the experimental part:
Urine samples suitable for processing with this assay are collected, transported, and stored using BD Vacutainer (gray top) tubes or other suitable leak-proof sterile container. Urine samples may be held at room temperature for 48 hours before test results are compromised.
Antibiotic stocks are stored at 2-8° C. and protected from direct sunlight. Prepared antibiotic stock solutions were aliquoted into a 96-deep well plate (Thermo Fisher Scientific) to form an Antibiotic Source Plate, as shown in FIG. 11 and identified by antibiotic name and concentration (μg/mL; 10× final concentration). […] One well was designated AB-blend which contained a combination of antibiotics to ensure there was no bacterial growth.
One hundred microliters of Mueller-Hinton agar medium was aliquoted into each appropriate well position of a 96-well microplate (VIS 96/F-PS, Eppendorf). The medium was allowed to solidify at room temperature for at least 10 min.
The antibiotics (10 μL) at various concentrations were then aliquoted into desired wells from the Antibiotic Source Plate. After the antibiotics were introduced to the agar medium, the ABR microplates were allowed to sit for at least 1 hr before use. If long-term storage is required, ABR microplates containing antibiotic-infuse agar are stored at 2-8° C. in the dark.
At the time of testing, urine samples were diluted 1:20 in sterile saline and vortexed. Each patient sample utilized a single ABR microplate. Five microliters of diluted patient sample were added to each well of the room temperature microplate, the plate was sealed and incubated for 16-18 hr at 37° C.
After incubation, the plate was removed from the incubator and carefully uncovered. Two-hundred microliters of deionized water were added to each well to suspend cells present above the agar and the plates incubated at room temperature for 30 min. After 30 min, 100 μl from each well was removed to a new plate and the OD600 was determined in a spectrophotometer. Five separate reads were taken of each plate and a mean OD600 measurement calculated.
Controls include: No-antibiotic control, Negative control plate, and AB-Blend. No antibiotic control: Any well containing medium that is not infused with antibiotics to ensure viability of bacterial cells present in patient urine samples and included in each plate. […] Negative control plate: Microplate containing antibiotic-infused agar medium without addition of patient sample or cultured bacterial organisms to ensure non-contamination of reagents. AB-Blend: One or more wells containing a combination of antibiotics to ensure there is no bacterial growth.
The raw data was then “blanked” using the measurement obtained from the AB-Blend well, as depicted in Table 5.
(§1) To determine whether bacterial organisms present in the patient samples were resistant or sensitive to a particular antibiotic at a certain concentration, blanked OD readings were compared to a threshold OD600 of 0.025 (Table 6). Any OD measurement greater than or equal to this threshold was designated Resistant (R) meaning bacterial organisms present in patient sample were resistant to that particular antibiotic at that certain concentration. Any OD measurement less than this threshold was designated Sensitive (S) meaning bacterial organisms present in patient sample were sensitive to that particular antibiotic at that certain concentration.

Assay [2] has the same test system. Nature of the assay: Antibiotic Resistance (ABR) assay utilizing liquid growth medium. The format is cell-based. The following applies: liquid medium; for overall sensitivity of the bacteria in the sample to the antibiotic (in words): Example 4 sample. As for the experimental part: Urine samples suitable for processing with this assay are collected, transported, and stored using BD Vacutainer tubes or other suitable leak-proof sterile containers. Urine samples may be held at room temperature for 48 hours before test results are compromised.
Antibiotic stocks are stored at 2-8° C. and protected from direct sunlight. Prepared antibiotic stock solutions were aliquoted into a 96-deep well plate (ThermoFisher Scientific) to form a 50× Antibiotic Source Plate and then diluted 1:5 to form a 10× Antibiotic Source Plate, as shown in FIG. 12 where each well is identified by antibiotic name and concentration (μg/mL; 10× final concentration). […] One well was assigned sodium azide to ensure no bacterial growth would be observed in that well.
Twenty microliters of each antibiotic solution were aliquoted into the pre-determined wells of a 96-well microplate (VIS 96/F-PS, Eppendorf) from the 10× Antibiotic Source Plate to create ABR testing plates for inoculation. These ABR testing plates were allowed to sit for up to 24 hours before use at 2-8° C. in the dark.
At the time of testing, urine samples were centrifuged to concentrate any bacterial cells and then mixed with liquid Mueller-Hinton medium and incubated for 6-16 hours at 37° C. After this initial incubation, the sample is diluted to 0.5-0.6 McF in saline and then 500 μl of that suspension was added to […] of Mueller-Hinton medium. One-hundred and eighty microliters of the diluted sample is then aliquoted to each well of the ABR microplate already containing 10× antibiotic solution, bringing all of the antibiotics to the desired final concentration. The plate is then sealed and incubated for 12-16 hours at 37° C.
After incubation, the plate was removed from the incubator and carefully uncovered and the OD600 was determined for each appropriate well by spectrophotometer. Five separate measurements were taken of each well on a plate and the mean OD600 measurement calculated for each well.
Controls are depicted in Table 10.
The raw data was then “blanked” using the measurement obtained from the Na-Azide well, as depicted in Table 14.
as §1, with “0.065” for “0.025”, “15). An” for “6). Any”

In the case of `O=C(O)c1cn(C2CC2)c2cc(N3CCNCC3)c(F)cc2c1=O` [Ciprofloxacin, ciprofloxacin], the “overall sensitivity of the bacteria in the sample to the antibiotic (in words)” value (from here on “overall sensitivity of the bacteria”) in assay [1] and in assay [2] was “sensitive” throughout. Besides, the “Blanked (OD600 minus AB-Blend well)” value in assay [1] (antibiotic 1 μg/mL) was 0.0024; in assay [1] (antibiotic 2 μg/mL) it was 0.0030; in assay [1] (antibiotic 4 μg/mL) it was 0.0003. Moreover, the “Mean (OD600)” value in assay [1] (antibiotic 1 μg/mL) is recorded as 0.0408; in assay [1] (antibiotic 2 μg/mL) it was 0.0414; in assay [1] (antibiotic 4 μg/mL) it was 0.0387; in assay [2] (antibiotic 1 μg/mL) it was 0.0441; in assay [2] (antibiotic 4 μg/mL), 0.0423. The “Blanked (OD600 minus Na-Azide well)” value in assay [2] (antibiotic 1 μg/mL) is on record as −0.0016; in assay [2] (antibiotic 4 μg/mL) it was −0.0034.
With `CO[C@@]1(NC(=O)Cc2cccs2)C(=O)N2C(C(=O)O)=C(COC(N)=O)CS[C@@H]21` [Cefoxitin, cefoxitin], the “overall sensitivity of the bacteria” value in assay [1] is recorded as “sensitive”. For the same compound, the “Blanked (OD600 minus AB-Blend well)” value in assay [1] (antibiotic 4 μg/mL) is 0.0017; in assay [1] (antibiotic 8 μg/mL), 0.0008; in assay [1] (antibiotic 16 μg/mL), 0.0005; in assay [1] (antibiotic 32 μg/mL) it was 0.0005. Also, the “Mean (OD600)” value in assay [1] (antibiotic 4 μg/mL) is listed as 0.0401; in assay [1] (antibiotic 8 μg/mL), 0.0392; in assay [1] (antibiotic 16 μg/mL), 0.0389; in assay [1] (antibiotic 32 μg/mL), 0.0389; in assay [2] (antibiotic 4 μg/mL), 0.2202; in assay [2] (antibiotic 8 μg/mL) it was 0.2288. Besides, the “Mean (OD600)” value in assay [2] (antibiotic 32 μg/mL) stood at 0.2348. Besides, the figures for the “Blanked (OD600 minus Na-Azide well)” value in assay [2] (antibiotic 4 μg/mL), in assay [2] (antibiotic 8 μg/mL) and in assay [2] (antibiotic 32 μg/mL) were 0.1745, 0.1831 and 0.1891, respectively.
In the case of `CC1(C)S[C@@H]2[C@H](NC(=O)[C@H](N)c3ccccc3)C(=O)N2[C@H]1C(=O)O` [Ampicillin, ampicillin], the “Blanked (OD600 minus AB-Blend well)” value in assay [1] (antibiotic 8 μg/mL) is reported as 0.4496; in assay [1] (antibiotic 16 μg/mL), 0.4838; in assay [1] (antibiotic 32 μg/mL), 0.4440. Further, the “Mean (OD600)” value was determined as 0.4880 in assay [1] (antibiotic 8 μg/mL); 0.5222 in assay [1] (antibiotic 16 μg/mL); 0.4824 in assay [1] (antibiotic 32 μg/mL); 0.0417 in assay [2] (antibiotic 8 μg/mL); 0.0419 in assay [2] (antibiotic 16 μg/mL); 0.0418 in assay [2] (antibiotic 32 μg/mL). In addition, the “Blanked (OD600 minus Na-Azide well)” value in assay [2] (antibiotic 8 μg/mL) was −0.0040; in assay [2] (antibiotic 16 μg/mL), −0.0038; in assay [2] (antibiotic 32 μg/mL) it was −0.0039. Moreover, the “overall sensitivity of the bacteria” value in assay [2] is listed as “sensitive”.
Consider `CN[C@H](CC(C)C)C(=O)N[C@H]1C(=O)N[C@@H](CC(N)=O)C(=O)N[C@H]2C(=O)N[C@H]3C(=O)N[C@H](C(=O)N[C@H](C(=O)O)c4cc(O)cc(O)c4-c4cc3ccc4O)[C@H](O)c3ccc(c(Cl)c3)Oc3cc2cc(c3O[C@@H]2O[C@H](CO)[C@@H](O)[C@H](O)[C@H]2O[C@H]2C[C@](C)(N)[C@H](O)[C@H](C)O2)Oc2ccc(cc2Cl)[C@H]1O` [Vancomycin, vancomycin], for which the “Mean (OD600)” value turned out to be 0.4918 in assay [1] (antibiotic 16 μg/mL); 0.0504 in assay [2] (antibiotic 1 μg/mL); 0.0435 in assay [2] (antibiotic 2 μg/mL); 0.0425 in assay [2] (antibiotic 4 μg/mL); 0.0431 in assay [2] (antibiotic 16 μg/mL); 0.0426 in assay [2] (antibiotic 32 μg/mL). The “Blanked (OD600 minus Na-Azide well)” value in assay [2] (antibiotic 1 μg/mL) is recorded as 0.0047; in assay [2] (antibiotic 2 μg/mL), −0.0022; in assay [2] (antibiotic 4 μg/mL), −0.0032; in assay [2] (antibiotic 16 μg/mL) it was −0.0026; in assay [2] (antibiotic 32 μg/mL), −0.0031. Also, the “overall sensitivity of the bacteria” value in assay [2] is “sensitive”.
As to `CO/N=C(\C(=O)N[C@@H]1C(=O)N2C(C(=O)O)=C(CSc3nc(=O)c(=O)[nH]n3C)CS[C@H]12)c1csc(N)n1` [Ceftriaxone, ceftriaxone], the “overall sensitivity of the bacteria” value in assay [1] is on record as “sensitive”. In addition, the “Blanked (OD600 minus AB-Blend well)” value in assay [1] (antibiotic 1 μg/mL) turned out to be 0.0061; in assay [1] (antibiotic 2 μg/mL), 0.0048; in assay [1] (antibiotic 4 μg/mL), 0.0021; in assay [1] (antibiotic 8 μg/mL) it was 0.0008; in assay [1] (antibiotic 16 μg/mL), 0.0007; in assay [1] (antibiotic 32 μg/mL), 0.0002. The “Blanked (OD600 minus AB-Blend well)” value in assay [1] (antibiotic 64 μg/mL) stood at 0.0001. Also, the “Mean (OD600)” value in assay [1] (antibiotic 1 μg/mL) turned out to be 0.0445; in assay [1] (antibiotic 2 μg/mL), 0.0432; in assay [1] (antibiotic 4 μg/mL) it was 0.0405; in assay [1] (antibiotic 8 μg/mL), 0.0392; in assay [1] (antibiotic 32 μg/mL), 0.0386; in assay [1] (antibiotic 64 μg/mL) it was 0.0385. In addition, the “Mean (OD600)” value in assay [2] (antibiotic 1 μg/mL) is listed as 0.2485; in assay [2] (antibiotic 4 μg/mL) it was 0.2357; in assay [2] (antibiotic 8 μg/mL), 0.2449; in assay [2] (antibiotic 64 μg/mL), 0.2356. Moreover, the “Blanked (OD600 minus Na-Azide well)” value amounted to 0.2028 in assay [2] (antibiotic 1 μg/mL), 0.1900 in assay [2] (antibiotic 4 μg/mL), 0.1992 in assay [2] (antibiotic 8 μg/mL) and 0.1899 in assay [2] (antibiotic 64 μg/mL).
Take `C[C@@H](O)[C@H]1C(=O)N2C(C(=O)O)=C(S[C@@H]3CN[C@H](C(=O)N(C)C)C3)[C@H](C)[C@H]12` [Meropenem, meropenem]: in assay [1], the “overall sensitivity of the bacteria” value is on record as “sensitive”. Further, the “Blanked (OD600 minus AB-Blend well)” value in assay [1] (antibiotic 1 μg/mL) is reported as 0.0008; in assay [1] (antibiotic 2 μg/mL), 0.0004; in assay [1] (antibiotic 4 μg/mL) it was 0.0006; in assay [1] (antibiotic 8 μg/mL), 0.0001. Also, the “Mean (OD600)” value in assay [1] (antibiotic 1 μg/mL) was 0.0392; in assay [1] (antibiotic 2 μg/mL), 0.0388; in assay [1] (antibiotic 4 μg/mL) it was 0.0390; in assay [1] (antibiotic 8 μg/mL), 0.0385; in assay [2] (antibiotic 1 μg/mL), 0.2198; in assay [2] (antibiotic 2 μg/mL), 0.1928. The “Mean (OD600)” value came to 0.1556 in assay [2] (antibiotic 4 μg/mL) and 0.0496 in assay [2] (antibiotic 8 μg/mL). Also, the “Blanked (OD600 minus Na-Azide well)” value in assay [2] (antibiotic 1 μg/mL) worked out at 0.1741; in assay [2] (antibiotic 2 μg/mL) it was 0.1471; in assay [2] (antibiotic 4 μg/mL) it was 0.1099; in assay [2] (antibiotic 8 μg/mL), 0.0039.
